What was measured:
CK1α = target: T1, CK1α (Homo sapiens, UniProt P48729+Q96SW2); assay: Western blot, degradation of substrate protein in hPBMCs; assay type: cell-based
T1 construct: effects of the compounds of the present disclosure on the expression of target proteins in cells; endogenous in cells; host or cells: human PBMCs (Milecell Biotechnologies)
Description: (§1) Conventional Western blot assay was performed to evaluate the effects of the compounds of the present disclosure on the expression of target proteins in cells. • (1) Cell Seeding and Protein Harvesting: Human peripheral blood mononuclear cells (hPBMCs) at a density of 1×10^6 cells/mL were thawed according to the PBMC Recovery Protocol (Milecell Biotechnologies Inc, Shanghai). […] After 24 hours of compounds treatment, cells were harvested and lysed in RIPA protein lysate containing protease inhibitors on ice for 30 min, followed by centrifugation. The supernatant was aspirated as the extracted total cell protein. The protein concentration of the supernatant was determined using the conventional BCA (Bicinchoninic Acid) assay. • (2) To the collected supernatant, 5X SDS sample loading buffer was added, followed by denaturation at 95°C for 5 minutes. The denatured samples were then separated by SDS-PAGE electrophoresis on a polyacrylamide gel, transferred onto a nitrocellulose membrane (0.45 µm NC membrane), blocked with blocking buffer at room temperature for 1 hour, and subjected to antibody incubation and development procedures according to the antibody manufacturer's instructions (Cell Signaling Technology Company).
(§2) Half-Maximal Degradation Concentration value (the drug concentration required for degrading proteins by 50%, abbreviated as DC50) reads method: comparing the grayscale values of Western blot bands from drug-treated samples with those from blank DMSO-treated controls, and identifying the drug concentration range at which the grayscale value is half that of the DMSO-treated control bands.
(§3) DC50 values can be calculated using ImageJ software to measure grayscale values of Western blot bands from drug-treated samples. The concentration-response curve is fitted to estimate the drug concentration corresponding to half the grayscale value.
(§4) Target protein remaining (%) refers to the percentage of target protein remaining in cells after treatment with protein degrader compounds.
(§5) Calculation method for target protein remaining (%): Use ImageJ software to measure grayscale values of Western blot bands from drug (protein degrader)-treated samples. The grayscale value of drug-treated bands is divided by that of internal control protein bands, and the resulting quotient is normalized to obtain the relative percentage of remaining target protein after protein degrader treatment.
(§6) Target protein degradation rate (%) = 1−target protein remaining (%). [formula]

IKZF1 = target: T2, IKZF1 (Homo sapiens, UniProt Q13422+Q96SW2); assay: as above; assay type: cell-based
T2 construct: effects of the compounds of the present disclosure on the expression of target proteins in cells; endogenous in cells; host or cells: human PBMCs (Milecell Biotechnologies)
T2 sequence (Q13422 whole entry): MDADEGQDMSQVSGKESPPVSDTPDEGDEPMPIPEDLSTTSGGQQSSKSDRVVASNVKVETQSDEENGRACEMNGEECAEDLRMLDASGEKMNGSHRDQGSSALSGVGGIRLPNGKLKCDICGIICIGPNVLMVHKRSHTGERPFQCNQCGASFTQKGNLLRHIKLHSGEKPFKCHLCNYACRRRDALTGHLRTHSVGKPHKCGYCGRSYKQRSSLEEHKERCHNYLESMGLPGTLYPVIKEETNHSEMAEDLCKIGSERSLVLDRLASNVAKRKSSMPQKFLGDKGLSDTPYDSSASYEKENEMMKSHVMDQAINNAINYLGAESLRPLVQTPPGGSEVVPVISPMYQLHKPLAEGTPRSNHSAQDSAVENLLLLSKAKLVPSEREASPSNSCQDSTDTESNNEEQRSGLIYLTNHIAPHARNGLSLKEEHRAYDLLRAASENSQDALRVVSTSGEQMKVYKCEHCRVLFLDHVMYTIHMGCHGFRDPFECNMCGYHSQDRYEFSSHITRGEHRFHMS
T2 sequence (Q96SW2 whole entry): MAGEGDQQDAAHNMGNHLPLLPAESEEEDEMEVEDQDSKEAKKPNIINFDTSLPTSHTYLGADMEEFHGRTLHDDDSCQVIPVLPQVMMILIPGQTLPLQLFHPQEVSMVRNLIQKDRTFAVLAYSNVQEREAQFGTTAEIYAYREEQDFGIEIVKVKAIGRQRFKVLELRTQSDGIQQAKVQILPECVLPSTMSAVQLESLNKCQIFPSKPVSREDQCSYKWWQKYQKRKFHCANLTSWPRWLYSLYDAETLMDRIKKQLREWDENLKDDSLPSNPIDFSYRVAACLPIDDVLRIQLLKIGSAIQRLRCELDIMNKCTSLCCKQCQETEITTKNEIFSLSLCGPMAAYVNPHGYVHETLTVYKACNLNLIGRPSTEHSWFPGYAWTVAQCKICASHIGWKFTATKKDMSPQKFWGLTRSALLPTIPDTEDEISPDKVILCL
T2 sequence (Q16531 whole entry partner): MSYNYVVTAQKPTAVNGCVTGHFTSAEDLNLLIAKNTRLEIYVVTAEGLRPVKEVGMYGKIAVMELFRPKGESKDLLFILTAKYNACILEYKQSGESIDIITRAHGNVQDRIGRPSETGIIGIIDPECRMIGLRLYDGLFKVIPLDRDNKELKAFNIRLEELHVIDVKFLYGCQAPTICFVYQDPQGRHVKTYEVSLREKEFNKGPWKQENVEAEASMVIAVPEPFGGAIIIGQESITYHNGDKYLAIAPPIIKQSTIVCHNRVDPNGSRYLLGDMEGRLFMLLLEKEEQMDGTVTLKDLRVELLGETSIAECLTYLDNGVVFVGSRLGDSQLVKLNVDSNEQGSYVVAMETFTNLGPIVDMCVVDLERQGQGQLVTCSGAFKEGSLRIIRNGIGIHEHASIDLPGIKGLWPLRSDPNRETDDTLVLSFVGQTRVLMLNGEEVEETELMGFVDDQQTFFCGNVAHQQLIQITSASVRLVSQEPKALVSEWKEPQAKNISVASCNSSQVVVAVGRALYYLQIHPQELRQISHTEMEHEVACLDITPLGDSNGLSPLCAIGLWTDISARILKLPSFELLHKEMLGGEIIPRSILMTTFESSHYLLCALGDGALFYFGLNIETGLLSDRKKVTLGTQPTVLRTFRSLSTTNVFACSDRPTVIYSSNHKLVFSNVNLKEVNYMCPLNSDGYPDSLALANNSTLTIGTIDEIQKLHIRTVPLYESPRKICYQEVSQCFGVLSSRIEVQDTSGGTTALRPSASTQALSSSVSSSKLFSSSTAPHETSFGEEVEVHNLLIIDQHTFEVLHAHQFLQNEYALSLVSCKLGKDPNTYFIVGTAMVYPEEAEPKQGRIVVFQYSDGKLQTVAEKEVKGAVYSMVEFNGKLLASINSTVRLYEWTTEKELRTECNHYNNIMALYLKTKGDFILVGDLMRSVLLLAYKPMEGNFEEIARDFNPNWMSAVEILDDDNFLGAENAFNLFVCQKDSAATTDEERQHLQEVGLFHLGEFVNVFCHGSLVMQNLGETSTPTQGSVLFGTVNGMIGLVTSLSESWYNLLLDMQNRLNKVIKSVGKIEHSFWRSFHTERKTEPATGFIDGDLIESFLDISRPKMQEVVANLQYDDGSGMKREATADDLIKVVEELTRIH
Description: as §1, §2, §3, §4, §5, §6

IKZF2 = target: T3, IKZF2 (Homo sapiens, UniProt Q96SW2+Q9UKS7); assay: as above; assay type: cell-based
T3 construct: effects of the compounds of the present disclosure on the expression of target proteins in cells; endogenous in cells; host or cells: human PBMCs (Milecell Biotechnologies)
T3 sequence (Q9UKS7 whole entry): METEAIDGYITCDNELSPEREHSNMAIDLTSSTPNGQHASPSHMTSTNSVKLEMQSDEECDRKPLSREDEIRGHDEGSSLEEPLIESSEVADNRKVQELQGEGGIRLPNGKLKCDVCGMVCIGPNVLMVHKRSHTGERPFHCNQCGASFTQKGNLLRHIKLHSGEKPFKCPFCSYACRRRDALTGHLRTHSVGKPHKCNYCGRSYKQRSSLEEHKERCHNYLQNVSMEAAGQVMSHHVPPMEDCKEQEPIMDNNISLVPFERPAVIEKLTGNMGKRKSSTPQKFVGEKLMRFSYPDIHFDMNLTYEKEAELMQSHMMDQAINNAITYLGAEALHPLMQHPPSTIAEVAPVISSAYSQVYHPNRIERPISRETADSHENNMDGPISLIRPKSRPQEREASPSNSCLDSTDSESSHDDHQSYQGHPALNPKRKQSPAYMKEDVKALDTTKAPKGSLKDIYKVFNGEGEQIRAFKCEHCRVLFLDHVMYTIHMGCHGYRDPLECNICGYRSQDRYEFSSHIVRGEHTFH
T3 sequence (Q96SW2 whole entry): as the sequence (Q96SW2 whole entry) above
T3 sequence (Q16531 whole entry partner): as the sequence (Q16531 whole entry partner) above
Description: as §1, §2, §3, §4, §5, §6

IKZF3 = target: T4, IKZF3 (Homo sapiens, UniProt Q96SW2+Q9UKT9); assay: as above; assay type: cell-based
T4 construct: effects of the compounds of the present disclosure on the expression of target proteins in cells; endogenous in cells; host or cells: human PBMCs (Milecell Biotechnologies)
T4 sequence (Q9UKT9 whole entry): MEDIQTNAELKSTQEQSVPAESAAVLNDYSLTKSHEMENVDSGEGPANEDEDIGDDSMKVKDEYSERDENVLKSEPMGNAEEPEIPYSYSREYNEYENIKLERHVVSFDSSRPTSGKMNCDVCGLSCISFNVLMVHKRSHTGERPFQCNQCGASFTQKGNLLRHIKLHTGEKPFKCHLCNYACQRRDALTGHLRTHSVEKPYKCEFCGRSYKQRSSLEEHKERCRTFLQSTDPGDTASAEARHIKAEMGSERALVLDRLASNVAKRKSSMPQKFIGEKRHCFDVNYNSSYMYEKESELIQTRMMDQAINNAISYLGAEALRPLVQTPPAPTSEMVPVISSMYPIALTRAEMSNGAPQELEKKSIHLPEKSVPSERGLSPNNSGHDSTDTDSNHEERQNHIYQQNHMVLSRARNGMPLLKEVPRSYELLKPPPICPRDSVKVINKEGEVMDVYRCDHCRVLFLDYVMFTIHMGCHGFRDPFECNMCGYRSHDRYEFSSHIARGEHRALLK
T4 sequence (Q96SW2 whole entry): as the sequence (Q96SW2 whole entry) above
T4 sequence (Q16531 whole entry partner): as the sequence (Q16531 whole entry partner) above
Description: as §1, §2, §3, §4, §5, §6

WEE1 = target: T5, WEE1 (Homo sapiens, UniProt P30291+Q96SW2); assay: as above; assay type: cell-based
T5 construct: effects of the compounds of the present disclosure on the expression of target proteins in cells; endogenous in cells; host or cells: human PBMCs (Milecell Biotechnologies)
T5 sequence (P30291 whole entry): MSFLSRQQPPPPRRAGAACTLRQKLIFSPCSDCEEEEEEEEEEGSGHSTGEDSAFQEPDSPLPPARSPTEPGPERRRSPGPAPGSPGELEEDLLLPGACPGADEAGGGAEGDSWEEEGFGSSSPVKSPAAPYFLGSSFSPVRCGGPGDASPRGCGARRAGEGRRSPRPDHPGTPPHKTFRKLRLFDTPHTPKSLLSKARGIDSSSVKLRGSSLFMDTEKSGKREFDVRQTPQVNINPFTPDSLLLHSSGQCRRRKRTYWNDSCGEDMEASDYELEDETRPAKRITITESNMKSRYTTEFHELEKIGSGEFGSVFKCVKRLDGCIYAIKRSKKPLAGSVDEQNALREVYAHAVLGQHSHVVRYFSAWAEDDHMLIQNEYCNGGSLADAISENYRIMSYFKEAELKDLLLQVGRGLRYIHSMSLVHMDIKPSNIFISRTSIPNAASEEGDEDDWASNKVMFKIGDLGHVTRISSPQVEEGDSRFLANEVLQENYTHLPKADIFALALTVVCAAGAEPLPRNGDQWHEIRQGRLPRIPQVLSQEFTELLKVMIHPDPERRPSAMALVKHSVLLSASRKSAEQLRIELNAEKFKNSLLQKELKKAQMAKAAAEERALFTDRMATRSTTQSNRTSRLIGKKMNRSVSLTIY
T5 sequence (Q96SW2 whole entry): as the sequence (Q96SW2 whole entry) above
T5 sequence (Q16531 whole entry partner): as the sequence (Q16531 whole entry partner) above
Description: as §1, §2, §3, §4, §5, §6

GSPT1 = assay: as above; assay type: cell-based, Human
Description: as §1, §2, §3, §4, §5, §6

[1] = target: T6, human Cereblon WT GST-tagged protein (Homo sapiens, UniProt Q96SW2); assay: CRBN-binding affinity, HTRF (CEREBLON BINDING kit); details: CRBN binding, HTRF, 3 hours at room temperature; read-out: HTRF IC50
T6 construct: purchased CISBIO 64BDCRBNPEH
T6 sequence (Q96SW2 whole entry): as the sequence (Q96SW2 whole entry) above

[2] = 24 hours treatment, compounds at 50 nM and 500 nM (concentration behind the class not stated)
[3] = Western blot, 24 hours of compound treatment, compounds tested at 50 nM and 500 nM (concentration for the table not stated)

T1 sequence (P48729 whole entry): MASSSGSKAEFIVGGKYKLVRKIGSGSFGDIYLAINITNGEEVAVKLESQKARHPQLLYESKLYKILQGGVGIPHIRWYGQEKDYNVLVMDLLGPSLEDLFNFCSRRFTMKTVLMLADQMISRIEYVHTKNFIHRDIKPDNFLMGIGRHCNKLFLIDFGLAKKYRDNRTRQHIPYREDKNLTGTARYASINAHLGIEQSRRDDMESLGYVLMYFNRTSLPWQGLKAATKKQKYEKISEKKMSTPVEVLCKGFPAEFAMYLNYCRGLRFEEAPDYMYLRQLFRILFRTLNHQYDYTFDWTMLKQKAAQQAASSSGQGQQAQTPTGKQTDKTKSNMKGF
T1 sequence (Q96SW2 whole entry): as the sequence (Q96SW2 whole entry) above
T1 sequence (Q16531 whole entry partner): as the sequence (Q16531 whole entry partner) above

## O=C1CCC(N2Cc3c(CN4CCC(c5noc6cc(F)ccc56)CC4)cccc3C2=S)C(=O)N1 (stereo not drawn) [GT-04997, 3-(4-((4-(6-fluorobenzo[d]isoxazol-3-yl)piperidin-1-yl)methyl)-1-thioxoisoindolin-2-yl)piperidine-2,6-dione]
CK1α; [2]
  CK1α substrate protein remaining %: B (80%< substrate protein remaining %≤ 100%)
IKZF1; [2]
  IKZF 1 substrate protein remaining %: B (80%< substrate protein remaining %≤ 100%)
IKZF2; [2]
  IKZF2 substrate protein remaining %: B (80%< substrate protein remaining %≤ 100%)
IKZF3; [2]
  IKZF3 substrate protein remaining %: B (80%< substrate protein remaining %≤ 100%)
WEE1; [2]
  Wee1 substrate protein remaining %: A (0% ≤ substrate protein remaining % ≤ 80%)
GSPT1; [2]
  GSPT1 substrate protein remaining %: B (80%< substrate protein remaining %≤ 100%)
[1]
  IC50: 100 to 500 nM

## O=C1CCC(N2Cc3ccc(CN4CCC(c5noc6cc(F)ccc56)CC4)cc3C2=S)C(=O)N1 (stereo not drawn) [GT-05031, 3-(6-((4-(6-fluorobenzo[d]isoxazol-3-yl)piperidin-1-yl)methyl)-1-thioxoisoindolin-2-yl)piperidine-2,6-dione]
CK1α; [2]
  CK1α substrate protein remaining %: B (80%< substrate protein remaining %≤ 100%)
IKZF1; [2]
  IKZF 1 substrate protein remaining %: B (80%< substrate protein remaining %≤ 100%)
IKZF2; [2]
  IKZF2 substrate protein remaining %: B (80%< substrate protein remaining %≤ 100%)
IKZF3; [2]
  IKZF3 substrate protein remaining %: A (0% ≤ substrate protein remaining % ≤ 80%)
WEE1; [2]
  Wee1 substrate protein remaining %: B (80%< substrate protein remaining %≤ 100%)
GSPT1; [2]
  GSPT1 substrate protein remaining %: A (0% ≤ substrate protein remaining % ≤ 80%)
[1]
  IC50: 100 to 500 nM

## Cc1ccsc1C1=CCN(Cc2ccc3c(c2)C(=S)N(C2CCC(=O)NC2=O)C3)CC1 (stereo not drawn) [GT-05032, 3-(6-((4-(3-methylthiophen-2-yl)-3,6-dihydropyridin-1(2H)-yl)methyl)-1-thioxoisoindolin-2-yl)piperidine-2,6-dione]
CK1α; [2]
  CK1α substrate protein remaining %: B (80%< substrate protein remaining %≤ 100%)
IKZF1; [2]
  IKZF 1 substrate protein remaining %: B (80%< substrate protein remaining %≤ 100%)
IKZF2; [2]
  IKZF2 substrate protein remaining %: B (80%< substrate protein remaining %≤ 100%)
IKZF3; [2]
  IKZF3 substrate protein remaining %: A (0% ≤ substrate protein remaining % ≤ 80%)
WEE1; [2]
  Wee1 substrate protein remaining %: B (80%< substrate protein remaining %≤ 100%)
GSPT1; [2]
  GSPT1 substrate protein remaining %: A (0% ≤ substrate protein remaining % ≤ 80%)
[1]
  IC50: 100 to 500 nM

## O=C1CCC(N2Cc3c(CN4CCC(c5nccc(Cl)c5Cl)CC4)cccc3C2=S)C(=O)N1 (stereo not drawn) [GT-08457, 3-(4-((4-(3,4-dichloropyridin-2-yl)piperidin-1-yl)methyl)-1-thioxoisoindolin-2-yl)piperidine-2,6-dione]
CK1α; [3]
  CK1α substrate protein remaining %: B (80%< substrate protein remaining %≤ 100%)
IKZF1; [3]
  IKZF 1 substrate protein remaining %: B (80%< substrate protein remaining %≤ 100%)
IKZF2; [3]
  IKZF2 substrate protein remaining %: B (80%< substrate protein remaining %≤ 100%)
IKZF3; [3]
  IKZF3 substrate protein remaining %: B (80%< substrate protein remaining %≤ 100%)
WEE1; [3]
  Wee1 substrate protein remaining %: A (0% ≤ substrate protein remaining % ≤ 80%)
GSPT1; [3]
  GSPT1 substrate protein remaining %: B (80%< substrate protein remaining %≤ 100%)

## Cc1ccccc1N1CCN(Cc2cccc3c2CN(C2CCC(=O)NC2=O)C3=S)CC1 (stereo not drawn) [GT-08497, 3-(1-thioxo-4-((4-(o-tolyl)piperazin-1-yl)methyl)isoindolin-2-yl)piperidine-2,6-dione]
CK1α; [3]
  CK1α substrate protein remaining %: B (80%< substrate protein remaining %≤ 100%)
IKZF1; [3]
  IKZF 1 substrate protein remaining %: A (0% ≤ substrate protein remaining % ≤ 80%)
IKZF2; [3]
  IKZF2 substrate protein remaining %: A (0% ≤ substrate protein remaining % ≤ 80%)
IKZF3; [3]
  IKZF3 substrate protein remaining %: B (80%< substrate protein remaining %≤ 100%)
WEE1; [3]
  Wee1 substrate protein remaining %: A (0% ≤ substrate protein remaining % ≤ 80%)
GSPT1; [3]
  GSPT1 substrate protein remaining %: A (0% ≤ substrate protein remaining % ≤ 80%)

## O=C1CCC(N2Cc3c(CN4CCN(c5ccc(C(F)(F)F)cn5)CC4)cccc3C2=S)C(=O)N1 (stereo not drawn) [GT-08702, 3-(1-thioxo-4-((4-(5-(trifluoromethyl)pyridin-2-yl)piperazin-1-yl)methyl)isoindolin-2-yl)piperidine-2,6-dione]
CK1α; [3]
  CK1α substrate protein remaining %: B (80%< substrate protein remaining %≤ 100%)
IKZF1; [3]
  IKZF 1 substrate protein remaining %: B (80%< substrate protein remaining %≤ 100%)
IKZF2; [3]
  IKZF2 substrate protein remaining %: B (80%< substrate protein remaining %≤ 100%)
IKZF3; [3]
  IKZF3 substrate protein remaining %: B (80%< substrate protein remaining %≤ 100%)
WEE1; [3]
  Wee1 substrate protein remaining %: A (0% ≤ substrate protein remaining % ≤ 80%)
GSPT1; [3]
  GSPT1 substrate protein remaining %: B (80%< substrate protein remaining %≤ 100%)

## O=C1CCC(N2Cc3c(CN4CCN(c5c(Cl)ccnc5Cl)CC4)cccc3C2=S)C(=O)N1 (stereo not drawn) [GT-08725, 3-(4-((4-(2,4-dichloropyridin-3-yl)piperazin-1-yl)methyl)-1-thioxoisoindolin-2-yl)piperidine-2,6-dione]
CK1α; [3]
  CK1α substrate protein remaining %: B (80%< substrate protein remaining %≤ 100%)
IKZF1; [3]
  IKZF 1 substrate protein remaining %: B (80%< substrate protein remaining %≤ 100%)
IKZF2; [3]
  IKZF2 substrate protein remaining %: B (80%< substrate protein remaining %≤ 100%)
IKZF3; [3]
  IKZF3 substrate protein remaining %: B (80%< substrate protein remaining %≤ 100%)
WEE1; [3]
  Wee1 substrate protein remaining %: A (0% ≤ substrate protein remaining % ≤ 80%)
GSPT1; [3]
  GSPT1 substrate protein remaining %: A (0% ≤ substrate protein remaining % ≤ 80%)

## CC(C)c1cc2c(N3CCN(Cc4cccc5c4CN(C4CCC(=O)NC4=O)C5=S)CC3)ncnc2s1 (stereo not drawn) [GT-08915, 3-(4-((4-(6-isopropylthieno[2,3-d]pyrimidin-4-yl)piperazin-1-yl)methyl)-1-thioxoisoindolin-2-yl)piperidine-2,6-dione]
CK1α; [2]
  CK1α substrate protein remaining %: B (80%< substrate protein remaining %≤ 100%)
IKZF1; [2]
  IKZF 1 substrate protein remaining %: B (80%< substrate protein remaining %≤ 100%)
IKZF2; [2]
  IKZF2 substrate protein remaining %: B (80%< substrate protein remaining %≤ 100%)
IKZF3; [2]
  IKZF3 substrate protein remaining %: B (80%< substrate protein remaining %≤ 100%)
WEE1; [2]
  Wee1 substrate protein remaining %: A (0% ≤ substrate protein remaining % ≤ 80%)
GSPT1; [2]
  GSPT1 substrate protein remaining %: B (80%< substrate protein remaining %≤ 100%)

## Cc1csc2ncnc(C3=CCN(Cc4cccc5c4CN(C4CCC(=O)NC4=O)C5=S)CC3)c12 (stereo not drawn) [GT-08938, 3-(4-((4-(5-methylthieno[2,3-d]pyrimidin-4-yl)-3,6-dihydropyridin-1(2H)-yl)methyl)-1-thioxoisoindolin-2-yl)piperidine-2,6-dione]
CK1α; [2]
  CK1α substrate protein remaining %: B (80%< substrate protein remaining %≤ 100%)
IKZF1; [2]
  IKZF 1 substrate protein remaining %: B (80%< substrate protein remaining %≤ 100%)
IKZF2; [2]
  IKZF2 substrate protein remaining %: B (80%< substrate protein remaining %≤ 100%)
IKZF3; [2]
  IKZF3 substrate protein remaining %: B (80%< substrate protein remaining %≤ 100%)
WEE1; [2]
  Wee1 substrate protein remaining %: A (0% ≤ substrate protein remaining % ≤ 80%)
GSPT1; [2]
  GSPT1 substrate protein remaining %: B (80%< substrate protein remaining %≤ 100%)
